Laboratory results: PMC7915527, “Development of a Liquid Chromatography/Mass Spectrometry-Based Inhibition Assay for the Screening of Steroid 5-α Reductase in Human and Fish Cell Lines” (Molecules, 2021)
Where “and” joins values, the source holds several entries; their conditions need not be identical. Identical values can stand only once. Like-named read-outs stand apart in the source and are kept apart here.

Tests used:
[1] = tested on: 5AR in RTG-2 cells; experiment: Cell-based 5AR activity/inhibition assay in rainbow trout gonad cells (RTG-2)
Method: (§1) For the calculation of KM for optimized assay conditions, ZFL and RTG-2 cells were treated with testosterone in increments of 0 to 50 µM. The DHT levels were measured (Figure 5a). Based on the calculated KM values, inhibition assays were conducted (Figure 5b).
(§2) HEK-293, LNCaP, DU-145, SW-13, and ZFL cell lines were obtained from the American Type Culture Collection (ATCC; Manassas, VA, USA) and cultured according to their instructions. The HEK-293 cells were cultured in a high-glucose DMEM that contained 10% FBS, 100 units/mL penicillin, and 100 µg/mL streptomycin. The DU-145 cells were cultured in EMEM that contained 10% FBS, 100 units/mL penicillin, and 100 µg/mL streptomycin. The LNCaP cells were cultured in RPMI 1640 that contained 10% FBS, 100 units/mL penicillin, and 100 µg/mL streptomycin at 37 °C in 5% CO2. SW-13 cells were cultured in Leibovitz’s L-15 medium with 10% FBS at 37 °C without CO2. ZFL cells were cultured in a complete medium that was composed of 50% L-15, 35% DMEM medium, and 15% F12 medium that contained […] sodium bicarbonate, 15 mM HEPES, 0.01 mg/mL bovine insulin, 50 ng/mL mouse EGF, 5% FBS, and 0.5% trout serum at 28 °C without CO2. RTG-2 cells were obtained from Prof. Kristin Schirmer (EAWAG, Switzerland) and cultured in the L-15 medium with 5% FBS, 100 units/mL penicillin, and 100 µg/mL streptomycin at 20 °C without CO2.
(§3) All cells were seeded on a 24-well plate. The seeding densities of the DU-145, LNCaP, and SW-13 cells were 0.5 × 10^5 cells per well. The ZFL and RTG-2 cells were seeded at densities of 1.0 × 10^5 cells and 2.0 × 10^5 cells, respectively. After overnight culture, the culture media was aspirated from each well and treated with testosterone that was diluted in the complete medium for 3 h and 6 h. In the case of transiently transfected HEK-293 cells, the testosterone treatment was applied after transient overexpression under the same conditions as other cell lines. The treated media were collected from each well and centrifuged at 3000× g for 5 min at 4 °C. The supernatants were stored at −80 °C until needed. […] The seeding conditions of all cells were the same as those previously described. After overnight culture, the culture medium was aspirated, and the cells were cotreated with a medium that contained testosterone and inhibitors for 3 h. The medium was collected from each well and centrifuged at 3000× g for 5 min at 4 °C. The supernatants were stored at −80 °C until analysis.
A method that was modified by was used for DHT extraction from the samples. Each sample, which included the calibration, QC, and assay medium, was placed in 1.5 mL PP tubes and spiked with a 0.5 ng/mL DHT-D3 internal standard prior to extraction. All sample tubes were vortexed for 5 s, and the samples were extracted using a liquid-liquid extraction (LLE) method via the addition of 600 µL of MTBE. The samples were vortexed and centrifuged at 4500× g rpm for 5 min, and the organic phase was transferred into glass tubes. The extraction step was repeated once, and the organic phase extracts were dried under a stream of nitrogen. After the samples were dried, 100 µL of the derivatization reagent and 100 µL of TEA were added for DHT derivatization. […]
(§4) The extracts were analyzed for DHT via ultra-performance LC-MS/MS (Agilent 1200/6460C QQQMSD coupled Jet Stream technology electrospray ion (ESI) source; Agilent Technologies, Santa Clara, CA, USA).

[2] = biological target: T1, SRD5A2 (Homo sapiens, UniProt P31213); experiment: Cell-based 5AR activity/inhibition assay in HEK-293 cells transiently overexpressing SRD5A2; conditions: 95% CI in parentheses
T1 sequence (P31213 1-254): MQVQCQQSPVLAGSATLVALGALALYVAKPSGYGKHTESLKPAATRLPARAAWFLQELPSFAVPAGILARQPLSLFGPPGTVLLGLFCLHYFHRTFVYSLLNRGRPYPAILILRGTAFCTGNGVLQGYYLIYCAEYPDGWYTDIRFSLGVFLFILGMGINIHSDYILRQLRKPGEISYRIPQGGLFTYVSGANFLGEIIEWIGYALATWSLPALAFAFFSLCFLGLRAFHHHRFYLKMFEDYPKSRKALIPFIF
Method: (§5) For the calculation of KM, testosterone was added in increments of 0 to 50 µM to non-vector- and SRD5A1-HEK293 cells and in increments of 0 to 10 µM to SRD5A2-HEK293 cells 24 h after transfection. The DHT levels were measured (Figure 4a). […] The IC50 values were calculated (Table 3).
(§6) Transient overexpression was induced using transfection of cDNA with lipofectamine (Thermo Fisher Scientific, Waltham, MA, USA). HEK-293 cells were seeded in 24-well plates at a density of 10^5 cells per well and incubated at 37 °C in an atmosphere of 5% CO2. After overnight culture, 500 ng of cDNA and 0.75 µL of the Lipofectamine 3000 reagent were diluted in the Opti-MEM medium and incubated for 15 min for DNA-lipid complex formation. The DNA-lipid complex was added to the wells and incubated for 6 h. After incubation, the sample-treated medium was changed to the complete culture medium and incubated for 18 h.
(§7) All cells were seeded on a 24-well plate. The seeding densities of the DU-145, LNCaP, and SW-13 cells were 0.5 × 10^5 cells per well. The ZFL and RTG-2 cells were seeded at densities of 1.0 × 10^5 cells and 2.0 × 10^5 cells, respectively. […]
(§8) The extracts were analyzed for DHT via ultra-performance LC-MS/MS (Agilent 1200/6460C QQQMSD coupled Jet Stream technology electrospray ion (ESI) source; Agilent Technologies, Santa Clara, CA, USA). […]

[3] = tested on: 5AR in ZFL cells; experiment: Cell-based 5AR activity/inhibition assay in zebrafish liver cells (ZFL)
Method: as §1, §2, §3
A method that was modified by was used for DHT extraction from the samples. […]
as §4

[4] = biological target: T2, 5AR (SRD5A1) in DU-145 cells (Homo sapiens, UniProt P18405); conditions: DHT formation from testosterone 0 to 10 µM, 95% CI in parentheses
T2 sequence (P18405 1-259): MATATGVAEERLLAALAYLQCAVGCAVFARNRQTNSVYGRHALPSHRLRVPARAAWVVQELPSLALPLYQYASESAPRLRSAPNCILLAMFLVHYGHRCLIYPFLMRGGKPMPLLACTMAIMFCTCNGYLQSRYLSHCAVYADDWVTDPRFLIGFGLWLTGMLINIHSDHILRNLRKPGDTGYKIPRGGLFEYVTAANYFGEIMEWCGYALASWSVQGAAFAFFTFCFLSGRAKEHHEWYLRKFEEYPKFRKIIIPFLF

[5] = biological target: T3, SRD5A1 (Homo sapiens, UniProt P18405); experiment: Cell-based 5AR activity/inhibition assay in HEK-293 cells transiently overexpressing SRD5A1; conditions: IC50 Value, SRD5A1-overexpressing HEK-293 cells; testosterone at KM, 3 h; 95% CI in parentheses
T3 sequence (P18405 1-259): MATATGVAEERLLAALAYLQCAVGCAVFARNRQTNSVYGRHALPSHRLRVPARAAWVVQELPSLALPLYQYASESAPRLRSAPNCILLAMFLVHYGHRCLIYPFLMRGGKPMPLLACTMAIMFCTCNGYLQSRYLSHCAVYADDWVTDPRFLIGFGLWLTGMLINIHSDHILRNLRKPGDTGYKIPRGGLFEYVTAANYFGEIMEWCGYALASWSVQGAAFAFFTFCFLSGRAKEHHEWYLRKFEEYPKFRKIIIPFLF
Method: as §5, §6, §7, §8

[6] = biological target: rat and human 5α-reductase; set-up: method as in PMID 14753249, PMID 8645628, PMID 7734404, PMID 9605412, PMID 16818707; conditions: ref [14],[43],[44],[45],[46],[47]; cited from earlier work
[7] = substrate: C[C@]12CC[C@H]3[C@@H](CCC4=CC(=O)CC[C@@]43C)[C@@H]1CC[C@@H]2O; experiment: cells, lysate or membranes; conditions: 95% CI in parentheses
[8] = testosterone 0 to 50 µM, 95% CI in parentheses
[9] = read-out: IC50 Value, testosterone at KM, 3 h, 95% CI in parentheses
[10] = testosterone at KM, 3 h, 95% CI in parentheses, read-out: IC50 Value
[11] = other: LNCaP cells, testosterone 0 to 10 µM
[12] = other: SRD5A1-HEK293 cells, testosterone 0 to 50 µM, 37.0 °C
[13] = other: DU-145 cells, testosterone 0 to 10 µM
[14] = other: SRD5A2-HEK293 cells, testosterone 0 to 10 µM, 37.0 °C

Molecule: C[C@]12CC[C@H]3[C@@H](CCC4=CC(=O)CC[C@@]43C)[C@@H]1CC[C@@H]2O [testosterone]
- Km [1, 8]: 1.12 nM
- Vmax [1, 8]: 13.09 (11.88–14.37) nmol L^−1 h^−1
- Vmax ([2]; SRD5A2-HEK293 cells, testosterone 0 to 10 µM): 22.52 nmol/L/h
- Km [3, 8]: 0.46 nM
- Vmax [3, 8]: 116.6 nmol L^−1 h^−1 and 116.60 (106.9–126.9) nmol L^−1 h^−1
- Vmax [4]: 75.55 nmol/L/h

Molecule: C[C@]12C=CC(=O)N[C@@H]1CC[C@@H]1[C@@H]2CC[C@]2(C)[C@@H](C(=O)Nc3cc(C(F)(F)F)ccc3C(F)(F)F)CC[C@@H]12 [Dutasteride, dutasteride]
- IC50 [5]: 1.27 nM
- IC50 [6]: 0.2 to 7 nM
- IC50 [1, 9]: 13.2 nM
- IC50 ([2]; IC50 Value, SRD5A2-overexpressing HEK-293 cells, testosterone at KM, 3 h): 1.19 nM
- IC50 [3, 9]: 7.33 nM

Molecule: CC(C)(C)NC(=O)[C@H]1CC[C@H]2[C@@H]3CC[C@H]4NC(=O)C=C[C@]4(C)[C@H]3CC[C@]12C [Finasteride, finasteride]
- IC50 ([1]; testosterone at KM, 3 h, 95% CI in parentheses, listed as finasteride, read-out: IC50 Value): 2460 nM
- IC50 [1, 10]: 2670 nM
- IC50 [3, 10]: 142 nM

B1: 5AR (SRD5A1) in LNCaP cells (Homo sapiens) (protein)
chain: MATATGVAEERLLAALAYLQCAVGCAVFARNRQTNSVYGRHALPSHRLRVPARAAWVVQELPSLALPLYQYASESAPRLRSAPNCILLAMFLVHYGHRCLIYPFLMRGGKPMPLLACTMAIMFCTCNGYLQSRYLSHCAVYADDWVTDPRFLIGFGLWLTGMLINIHSDHILRNLRKPGDTGYKIPRGGLFEYVTAANYFGEIMEWCGYALASWSVQGAAFAFFTFCFLSGRAKEHHEWYLRKFEEYPKFRKIIIPFLF
- Km [7, 11]: 15.10 (12.35–19.25) nM
- Vmax [7, 11]: 0.000644 µM/min

B2: SRD5A1 (Homo sapiens) (protein)
chain: MATATGVAEERLLAALAYLQCAVGCAVFARNRQTNSVYGRHALPSHRLRVPARAAWVVQELPSLALPLYQYASESAPRLRSAPNCILLAMFLVHYGHRCLIYPFLMRGGKPMPLLACTMAIMFCTCNGYLQSRYLSHCAVYADDWVTDPRFLIGFGLWLTGMLINIHSDHILRNLRKPGDTGYKIPRGGLFEYVTAANYFGEIMEWCGYALASWSVQGAAFAFFTFCFLSGRAKEHHEWYLRKFEEYPKFRKIIIPFLF
- Km [7, 12]: 2.29 (1.70–3.09) nM
- Vmax [7, 12]: 0.000143 µM/min

B3: 5AR (SRD5A1) in DU-145 cells (Homo sapiens) (protein)
chain: MATATGVAEERLLAALAYLQCAVGCAVFARNRQTNSVYGRHALPSHRLRVPARAAWVVQELPSLALPLYQYASESAPRLRSAPNCILLAMFLVHYGHRCLIYPFLMRGGKPMPLLACTMAIMFCTCNGYLQSRYLSHCAVYADDWVTDPRFLIGFGLWLTGMLINIHSDHILRNLRKPGDTGYKIPRGGLFEYVTAANYFGEIMEWCGYALASWSVQGAAFAFFTFCFLSGRAKEHHEWYLRKFEEYPKFRKIIIPFLF
- Km [7, 13]: 9.15 (7.01–12.81) nM
- Vmax [7, 13]: 0.00126 µM/min

B4: SRD5A2 (Homo sapiens) (protein)
chain: MQVQCQQSPVLAGSATLVALGALALYVAKPSGYGKHTESLKPAATRLPARAAWFLQELPSFAVPAGILARQPLSLFGPPGTVLLGLFCLHYFHRTFVYSLLNRGRPYPAILILRGTAFCTGNGVLQGYYLIYCAEYPDGWYTDIRFSLGVFLFILGMGINIHSDYILRQLRKPGEISYRIPQGGLFTYVSGANFLGEIIEWIGYALATWSLPALAFAFFSLCFLGLRAFHHHRFYLKMFEDYPKSRKALIPFIF
- Km [7, 14]: 0.36 (0.18–0.65) nM
- Vmax [7, 14]: 0.000375 µM/min
